Read-outs that look alike come from different tables or passages of the source. Some results are limits rather than exact numbers.

Assay [1] has as its target T1, PBP3 (PaPBP3) (Pseudomonas aeruginosa, UniProt G3XD46).
T1 construct: gene ftsI; residues 50–579
The experiment in a line: biochemical. On the set-up: BOCILLIN FL fluorescence anisotropy, residual PBP3 binding after 1 h pre-incubation with compound. The note with it: read-out: Residual Activity by BOCILLIN FL FA (%). The protocol: Unless otherwise stated, assays were run in triplicate using a 60 nM purified protein (see above), 30 nM BOCILLIN FL in pH 7 100 mM sodium phosphate buffer, with 0.01% Triton to reduce promiscuous ligand binding[23] and reduce binding of the protein to the plate. Assays were run in triplicate in a volume of 50 μL, in black, flat-bottom, 384-well microplates (Grenier Bio-One, Austria) at 30 °C. The change in FA was measured using a ClarioStar plate reader (BMG Labtech) with polarized filters at excitation: 482–16, emission: F: 530–4, and calculated using MARS software v3.32 (BMG Labtech) using the equation [drawing 1] where Fpara is the fluorescence intensity parallel to the excitation plane and Fperp is fluorescence intensity perpendicular to the excitation plane. Residual activities were determined by pre-incubating the test compound (1024 μM) and protein for 1 h at 30 °C before the reaction was initiated by the addition of BOCILLIN FL. The change in FA after 30 min was compared to the uninhibited control to determine the residual activity. In order to calculate Ki, the compound (at 11 concentrations: 1–1024 μM) and BOCILLIN FL were mixed and the reaction was initiated by the addition of PBP. Also included in the model were progress curves of nine concentrations of PBP (40–110 nM). Inhibition plots with meropenem and ceftazidime were done to ensure the correct parameters for BOCILLIN FL binding were used. Progress curves were analyzed with KinTek, USA, as described;[52],[69] reported errors represent the standard error. The acylation of a PBP by BOCILLIN FL (Figure S1) can be described by a simple one-step model.[52] However, unlike the previous studies, we found it was necessary to include a term (k2) to account for the deacylation of BOCILLIN FL to release a hydrolyzed product (Figure S1). The fluorescence intensity was constant throughout the reaction. Inhibitor binding was modeled as a reversible reaction to form the enzyme–inhibitor complex (Figure S1). Ki was calculated as the ratio of the off-rate koff to the on-rate kon (Figure S1). Table 1 Residual Activities and Kis of Compounds Tested in the BOCILLIN FL Competition Assay for Binding to PaPBP3 and Residual Activities Measured in S2d Turnover Assays ^a a For both BOCILLIN FL FA and S2d assays, residual activities in the presence of a 1 mM inhibitor are a percentage of the activity of the untreated control. Errors are standard errors (n = 3) from independent measurements. b Residual activity measured at 100 μM due to solubility issues at 1 mM. Ki, calculated with 11 concentrations of each compound and determined using global fitting in Kintek Global Explorer.[52],[59]

Assay [2] deals with T1, PBP3 (PaPBP3). Kind of assay: biochemical. On the set-up: S2d thioester turnover with DTNB, absorbance 412 nm, residual activity after 1 h pre-incubation. The conditions noted are these: read-out: Residual Activity by S2d Turnover (%). On the procedure: Residual activities were measured by the ability of a potential inhibitor to hinder hydrolysis of the substrate analogue S2d (2-((benzoyl-D-alanyl)thio)acetic acid) turnover by PaPBP3 as described for other PBPs.[4],[24],[53],[54] Assays were conducted in 50 μL in a 384-well, clear-bottom, black-walled microplate (Greiner Bio-One). PaPBP3 (400 nM) was incubated with 2 mM of each compound for 1 h at 30 °C in 100 mM sodium phosphate, pH 7, supplemented with 0.01% (v/v) triton. A solution of 5,5′-dithiobis-(2-nitrobenzoic acid) and S2d diluted in the same buffer (to give a final concentration in the assay of 1 mM for both reagents) was added to each well to initiate the reaction. The final concentration of protein was 200 nM and the final inhibitor concentration was 1 mM. A ClarioStar plate reader (BMG Labtech) was used to follow the reaction by observing the change in absorbance at 412 nm at 30 °C. […] The initial rate of S2d turnover was calculated using GraphPad prism (Prism 8 for macOS, GraphPad Software LLC) and the standard error calculated from three independent technical replicates. The rate of non-enzymatic S2d hydrolysis was subtracted from each rate to find the corrected rate. For each compound, the ratio of the corrected rate to the untreated control corrected rate was expressed as a percentage to give the residual activity. [drawing 2] Table 1 Residual Activities and Kis of Compounds Tested in the BOCILLIN FL Competition Assay for Binding to PaPBP3 and Residual Activities Measured in S2d Turnover Assays ^a a For both BOCILLIN FL FA and S2d assays, residual activities in the presence of a 1 mM inhibitor are a percentage of the activity of the untreated control. Errors are standard errors (n = 3) from independent measurements. b Residual activity measured at 100 μM due to solubility issues at 1 mM. Ki, calculated with 11 concentrations of each compound and determined using global fitting in Kintek Global Explorer.[52],[59]

Assay [3] has as its target T1, PBP3 (PaPBP3). The experiment in a line: crystal structure; BOCILLIN FL fluorescence anisotropy competition (Ki). In kind it is biochemical. (In general: Fluorescence polarisation rises when a labelled molecule tumbles more slowly, as on binding a larger partner.)
The target of assay [4] is T1, PBP3 (PaPBP3). Kind of assay: biochemical. On the set-up: BOCILLIN FL competition fluorescence anisotropy, progress curves globally fitted in KinTek to reversible one-step model. The conditions noted are these: BOCILLIN FL competition. On the procedure:
Unless otherwise stated, assays were run in triplicate using a 60 nM purified protein (see above), 30 nM BOCILLIN FL in pH 7 100 mM sodium phosphate buffer, with 0.01% Triton to reduce promiscuous ligand binding[23] and reduce binding of the protein to the plate. Assays were run in triplicate in a volume of 50 μL, in black, flat-bottom, 384-well microplates (Grenier Bio-One, Austria) at 30 °C. The change in FA was measured using a ClarioStar plate reader (BMG Labtech) with polarized filters at excitation: 482–16, emission: F: 530–4, and calculated using MARS software v3.32 (BMG Labtech) using the equation [drawing 1] where Fpara is the fluorescence intensity parallel to the excitation plane and Fperp is fluorescence intensity perpendicular to the excitation plane. Residual activities were determined by pre-incubating the test compound (1024 μM) and protein for 1 h at 30 °C before the reaction was initiated by the addition of BOCILLIN FL. […] Progress curves were analyzed with KinTek, USA, as described;[52],[69] reported errors represent the standard error. […] The fluorescence intensity was constant throughout the reaction. […] Ki was calculated as the ratio of the off-rate koff to the on-rate kon (Figure S1). 1–15 were screened for PaPBP3 inhibition at 1 mM using an established fluorescence anisotropy (FA) assay.[52] […]

T1 sequence (G3XD46 50-579): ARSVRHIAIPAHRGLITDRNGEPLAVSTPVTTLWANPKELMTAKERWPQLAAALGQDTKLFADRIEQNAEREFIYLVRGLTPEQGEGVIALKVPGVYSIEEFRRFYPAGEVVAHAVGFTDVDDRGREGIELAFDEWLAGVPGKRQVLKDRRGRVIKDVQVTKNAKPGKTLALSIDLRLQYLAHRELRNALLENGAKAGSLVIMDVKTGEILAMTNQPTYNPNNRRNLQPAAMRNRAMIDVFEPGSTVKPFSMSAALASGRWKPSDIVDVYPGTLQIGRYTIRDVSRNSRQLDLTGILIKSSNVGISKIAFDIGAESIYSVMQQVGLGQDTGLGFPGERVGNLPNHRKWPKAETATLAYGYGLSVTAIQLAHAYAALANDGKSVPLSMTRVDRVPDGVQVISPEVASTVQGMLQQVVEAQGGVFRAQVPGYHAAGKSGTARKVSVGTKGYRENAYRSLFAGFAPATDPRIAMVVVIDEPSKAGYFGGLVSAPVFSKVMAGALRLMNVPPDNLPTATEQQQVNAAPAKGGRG

For `O=C(O)c1ccc2c(c1)B(O)OC2` [compound 3], the remaining activity at 1000 µM on PBP3 (PaPBP3) [1] stood at 75 ± 1%; at PBP3 (PaPBP3) [2] it was 57.8 ± 0.6%.
Consider `CNC(=O)CNC(=O)c1ccc2c(c1)B(O)OC2` [compound 5], for which the remaining activity at 1000 µM on PBP3 (PaPBP3) [1] and on PBP3 (PaPBP3) [2] was > 90% each time.
For the compound `NC(=O)[C@@H](Cc1ccccc1)NC(=O)c1ccc2c(c1)B(O)OC2` [compound 6], the remaining activity at 1000 µM at PBP3 (PaPBP3) [1] and on PBP3 (PaPBP3) [2] was > 90% each time.
As for `COC(=O)[C@H](NC(=O)c1ccc2c(c1)B(O)OC2)c1ccccc1` [compound 7], the remaining activity at 1000 µM at PBP3 (PaPBP3) [1] and at PBP3 (PaPBP3) [2] was > 90% each time.
Regarding `O=C1CN(C(=O)[C@@H](Cc2ccccc2)NC(=O)c2ccc3c(c2)B(O)OC3)CCN1` [compound 11], the results for the remaining activity at 1000 µM on PBP3 (PaPBP3) [1] and on PBP3 (PaPBP3) [2] were 84 ± 1% and 80.9 ± 1.3%, respectively.
Turning to `NC(=O)[C@H](NC(=O)c1ccc2c(c1)B(O)OC2CC(=O)O)c1ccccc1` (some centres unmarked) [compound 12, 12], the remaining activity at 1000 µM at PBP3 (PaPBP3) [1] stood at 16 ± 6%; at PBP3 (PaPBP3) [2], 19.6 ± 0.4%. Besides, the affinity on PBP3 (PaPBP3) [3] corresponds to a Ki of 73.9 ± 0.8 µM.
`CN1CCN(C(=O)CNC(=O)c2ccc3c(c2)B(O)OC3CC(=O)O)CC1=O` (centres unmarked) [compound 13, 13]: the remaining activity at 1000 µM on PBP3 (PaPBP3) [1] was found to be 42 ± 6%; on PBP3 (PaPBP3) [2], 47.5 ± 0.6%. The inhibition constant Ki on PBP3 (PaPBP3) [3] amounted to 172 ± 3 µM.
Take `O=C(O)CC1OB(O)c2ccc(OCc3ccccc3)cc21` (centres unmarked) [compound 15, 2-(5-(Benzyloxy)-1-hydroxy-1,3-dihydrobenzo[c][1,2]oxaborol-3-yl)acetic Acid]: the Ki on PBP3 (PaPBP3) [3] stood at 78.1 ± 0.9 µM.
Consider `O=C(O)C[C@@H]1CC[C@H](NC(=O)Cc2cccs2)B(O)O1` [vaborbactam], for which the remaining activity at 1000 µM on PBP3 (PaPBP3) [1] was 54 ± 5%; on PBP3 (PaPBP3) [2] it was 75.8 ± 0.7%. The compound also displayed a Ki at PBP3 (PaPBP3) [4] of 201 ± 2.3 µM.

Usually Ki stands for a measure of affinity in units of concentration, obtained from inhibition or displacement. Low values mean a stronger hold on the target, high ones a looser hold on the target.
